Data reported in patent US10793526B2, “Hydantoin derivative compounds, methods of use and methods of treatment” (University of South Florida, priority 2016, dated 2020).

Legend:
[1] = test system: panel of Gram-positive and Gram-negative bacteria; test: Antimicrobial activity against the whole panel of bacteria; assay type: cell-based; settings: statement relating activity to retention time
Experimental: (§1) Minimum inhibitory concentrations (MICs) assay.^2
(§2) All compounds were tested against six different bacteria strains: methicillin-resistant S. aureus (MRSA, ATCC 33591), E. coli (ATCC 25922), methicillin-resistant S. epidermidis (MRSE, RP62A), K. pneumoniae (ATCC 13383), vancomycin-resistant Enterococcus faecalis (VREF, ATCC 700802), P. aeruginosa (ATCC 27853). One colony of each bacteria was inoculated in 4 mL TSB buffer at 37° C. overnight, which was then diluted 100 times, and the bacteria were allowed to grow to the mid-logarithmic phase. 50 μL hydantoin compounds in 2-fold serial dilution of TSB were added in the 96-well plate, then 50 μL diluted bacterial in TSB medium (1×10^6 CFU/mL) was added to each well. After 16 h of incubation at 37° C., the absorption at 600 nm wavelength on a Biotek Synergy HT microtiter plate reader was recorded. Minimum inhibitory concentrations were determined as the lowest concentrations that inhibited bacteria growth completely.

E. coli (ATCC 25922) = test: Minimum inhibitory concentration (MIC) assay, E. coli; assay type: cell-based, Escherichia coli; settings: Gram negative, 16 h incubation
Experimental: as §1, §2

[2] = test system: vancomycin-resistant Enterococcus faecalis (VREF, ATCC 700802); test: Minimum inhibitory concentration (MIC) assay, VREF; assay type: cell-based; settings: Gram positive, 16 h incubation
Experimental: as §1, §2

[3] = test system: red blood cells (RBCs) of mice; test: Hemolytic assay; assay type: cell-based
Experimental: Fresh red blood cells (RBCs) of mice were washed with 1×PBS buffer and centrifuged 10 min at 3500 rpm for 3 times until the supernatant was clear, then RBCs were diluted into 5% v/v suspension in 1×PBS. 50 μL compounds in PBS were 2-fold serially diluted in a 96-well plate, and incubated with 50 μL RBCs suspension for 1 h at 37° C. The mixture was then centrifuged for 10 min at 3500 rpm. Subsequently, 30 μL of the supernatant was added to 100 μL PBS, then the absorbance of mixture was read on a Biotek Synergy HT plate reader at 540 nm. The hemolytic activity was calculated by the formula % hemolysis=(Abssample−AbsPBS)/(AbsTriton−AbsPBS)×100%. 1% Triton X-100 were used as the positive control and 1×PBS buffer was used as the negative control.

[4] = test system: K. pneumoniae (ATCC 13383); test: Minimum inhibitory concentration (MIC) assay, K. pneumoniae; assay type: cell-based, Klebsiella pneumoniae; settings: Gram negative, 16 h incubation
Experimental: as §1, §2

[5] = test system: P. aeruginosa (ATCC 27853); test: Minimum inhibitory concentration (MIC) assay, P. aeruginosa; assay type: cell-based, Pseudomonas aeruginosa; settings: Gram negative; ATCC 27853; 16 h incubation
Experimental: as §1, §2

[6] = test system: methicillin-resistant S. epidermidis (MRSE, RP62A); test: Minimum inhibitory concentration (MIC) assay, MRSE; assay type: cell-based, Staphylococcus epidermidis; settings: Gram positive, 16 h incubation
Experimental: as §1, §2

[7] = test system: methicillin-resistant S. aureus (MRSA, ATCC 33591); test: Minimum inhibitory concentration (MIC) assay, MRSA; assay type: cell-based, Staphylococcus aureus
Experimental: as §1, §2

[8] = test system: MRSA-induced lung inflammation; test: Rat model of MRSA-induced pneumonia, pathological analysis (H&E); assay type: in vivo; settings: 10 mg/kg i.v.
Experimental: The rat model of MRSA-induced pneumonia.^4, 5
The protocol of animal studies was approved by the institutional committee for animal care of Nanjing University, and the experiments were conducted following the regulation of the National Ministry of Health of China. In Brief, male Wistar rats (6-8 weeks, ˜200 g in average weight) were subjected to fast for 12 h. Next, rats were anesthetized by intraperitoneal administration of 0.35 g/kg of chloral hydrate. To induce MRSA pneumonia, the trachea of rats were exposed, to which 100 μL PBS containing 2×10^6 CFU/mL MRSA in PBS was slowly injected. The rats were retained upright for 1 min, and the cut was sealed. The MRSA infection was allowed to develop for 24 h.
The hydantoin compound 22 or vancomycin were used as antibiotics in the study. In brief, a dose of 10 mg/kg of the drug was injected to the tested rats intravenously. On the day of 3 and 5, rats were sacrificed, and lung sections were stained with hematoxylin and eosin (H&E), and their morphology was investigated under a light microscope at 100× magnification. The existence (indicated by the infiltration of neutrophils) and the extent of possible inflammatory response (indicated by the integrity of the alveolar structure and endothelium cilium) were recorded from at least five randomly picked sections by an experienced physician.

Row | MIC (μg/mL) E. coli (E. coli (ATCC 25922)) [µg/mL] | MIC (μg/mL) VREF [2] [µg/mL] | MIC (μg/mL) K.P. [4] [µg/mL] | MIC (μg/mL) P.A. [5] [µg/mL] | MIC (μg/mL) MRSE [6] [µg/mL] | MIC (μg/mL) MRSA ([7]; Gram positive, ATCC 33591, 16 h incubation) [µg/mL] | MIC of MRSA ([7]; Table 2) [µg/mL] | SMILES | antibacterial activity of compounds with HPLC RT values less than 26 min [1] | HC50 [3] [µg/mL] | lung inflammation (H&E staining), day not given [8]
1 | 12.5 | 25 | 12.5 | 12.5 | 25 | 25 | 25 | CCCCCCCCCCCC(=O)N[C@@H](CCCCN)CN1CC(=O)N(c2ccc(OC)cc2)C1=O [Compound 18, (S)—N-(6-amino-1-(3-(4-methoxyphenyl)-2,4-dioxoimidazolidin-1-yl)hexan-2-yl)dodecan amide] | no apparent antibacterial activity | 200 | 
2 |  |  |  |  |  |  |  | CN[C@H](CC(C)C)C(=O)N[C@H]1C(=O)N[C@@H](CC(N)=O)C(=O)N[C@H]2C(=O)N[C@H]3C(=O)N[C@H](C(=O)N[C@H](C(=O)O)c4cc(O)cc(O)c4-c4cc3ccc4O)[C@H](O)c3ccc(c(Cl)c3)Oc3cc2cc(c3O[C@@H]2O[C@H](CO)[C@@H](O)[C@H](O)[C@H]2O[C@H]2C[C@](C)(N)[C@H](O)[C@H](C)O2)Oc2ccc(cc2Cl)[C@H]1O [vancomycin, reference compound] |  |  | alleviated condition
